Nine molecules from ChEMBL document CHEMBL4261494, “Design, synthesis and biological evaluation of novel Schiff base-bridged tetrahydroprotoberberine triazoles as a new type of potential antimicrobial agents” (Medchemcomm, 2017) can be followed below.

Values after ≈ are worked out from the molar mass of the structure shown. Active and inactive are the calls of the source. The rule behind the calls is not given here.

One series has as its system Proteus vulgaris. It is filed as functional. The note with it: ATCC 13315, 24 h.
The test system of the next series is Salmonella typhi. Put plainly: microbe, parasite or virus in culture. The note with it: Salmonella enterica, 24 h.
The test system of a further series is Micrococcus luteus. It is filed as functional. The note with it: ATCC 4698, 24 h.
A short description of series [1]: Aqueous solubility of the compound in pH 7.4 phosphate buffer at 1 mg after 3 hrs by UV absorption analysis. It is filed as physicochemical.
The subject of series [2] is Escherichia coli. It is filed as functional. The note with it: DH52, 24 h.
The next series deals with Shigella dysenteriae. It is filed as functional. The note with it: 24 h.
The subject of series [3] is Staphylococcus aureus. It is filed as functional. The note with it: ATCC 25923, 24 h.
Another series concerns Pseudomonas aeruginosa. The format is functional. The note with it: ATCC 27853, 24 h.
The test system of series [4] is Escherichia coli. It is filed as functional. The note with it: JM109, 24 h.
In series [5] the test system is Staphylococcus aureus. The format is functional. The note with it: N315, 24 h.
The subject of the next series is Bacillus spizizenii. It is filed as functional. The note with it: ATCC 6633, 24 h.
Another series deals with Candida albicans. It is filed as functional. The note with it: ATCC 10231.
Another series relates to Aspergillus flavus. The format is functional. The note with it: ATCC 204304.
For another series, the system named is Kregervanrija fluxuum. It is filed as functional. The note with it: ATCC 9888.
The test system of a further series is Cyberlindnera jadinii. It is filed as functional.

Take `CCCCOc1c(OC)cc(/C=N/n2cnnc2)c2c1CN1CCc3cc4c(cc3C1C2)OCO4` (centres undefined): the MIC amounted to 16 µg/mL (≈ 33.6 µM) in the series with Proteus vulgaris; 16 µg/mL (≈ 33.6 µM) in the series on Salmonella typhi; 1 µg/mL (≈ 2.1 µM) in the series with Micrococcus luteus; 32 µg/mL (≈ 67.3 µM) with Escherichia coli [2]; 8 µg/mL (≈ 16.8 µM) in the series on Shigella dysenteriae; 16 µg/mL (≈ 33.6 µM) with Staphylococcus aureus [3]. For the same molecule, the MIC against Pseudomonas aeruginosa is 16 µg/mL (≈ 33.6 µM); in the series with Escherichia coli [4] it was 16 µg/mL (≈ 33.6 µM); against Staphylococcus aureus [5], 8 µg/mL (≈ 16.8 µM); in the series on Bacillus spizizenii it was 16 µg/mL (≈ 33.6 µM). For the same molecule, the solubility at 3 h in series [1] came out at 121 µg/mL (≈ 254 µM).
Take `CCCCCCCCOc1c(OC)cc(/C=N/n2cnnc2)c2c1CN1CCc3cc4c(cc3C1C2)OCO4` (centres undefined): the MIC in the series on Proteus vulgaris is 16 µg/mL (≈ 30.1 µM); in the series on Salmonella typhi, 16 µg/mL (≈ 30.1 µM); in the series on Micrococcus luteus, 16 µg/mL (≈ 30.1 µM); against Escherichia coli [2], 16 µg/mL (≈ 30.1 µM); in the series with Shigella dysenteriae, 64 µg/mL (≈ 120 µM); against Staphylococcus aureus [3], 8 µg/mL (≈ 15 µM). For the same molecule, the MIC in the series on Pseudomonas aeruginosa amounted to 512 µg/mL (≈ 963 µM); with Escherichia coli [4] it was 32 µg/mL (≈ 60.2 µM); in the series with Staphylococcus aureus [5], 16 µg/mL (≈ 30.1 µM); against Bacillus spizizenii, 16 µg/mL (≈ 30.1 µM).
Regarding `CCCCCCCCCCOc1c(OC)cc(/C=N/n2cnnc2)c2c1CN1CCc3cc4c(cc3C1C2)OCO4` (centres undefined), the MIC in the series on Proteus vulgaris came out at 64 µg/mL (≈ 114 µM); against Salmonella typhi it was 16 µg/mL (≈ 28.6 µM); in the series on Micrococcus luteus, 64 µg/mL (≈ 114 µM); against Escherichia coli [2], 64 µg/mL (≈ 114 µM); with Shigella dysenteriae, 128 µg/mL (≈ 229 µM); in the series on Staphylococcus aureus [3], 32 µg/mL (≈ 57.2 µM). Further, the MIC turned out to be 128 µg/mL (≈ 229 µM) in the series on Pseudomonas aeruginosa, 128 µg/mL (≈ 229 µM) against Escherichia coli [4], 32 µg/mL (≈ 57.2 µM) against Staphylococcus aureus [5] and 32 µg/mL (≈ 57.2 µM) in the series with Bacillus spizizenii.
Consider `COc1cc(/C=N/n2cnnc2)c2c(c1OCc1cccc(Cl)c1)CN1CCc3cc4c(cc3C1C2)OCO4` (centres undefined), for which the MIC in the series on Proteus vulgaris came out at 512 µg/mL (≈ 941 µM); against Salmonella typhi it was 256 µg/mL (≈ 471 µM); against Micrococcus luteus, 512 µg/mL (≈ 941 µM); against Escherichia coli [2], 512 µg/mL (≈ 941 µM); with Shigella dysenteriae it was 64 µg/mL (≈ 118 µM); against Staphylococcus aureus [3], 256 µg/mL (≈ 471 µM). Also, the MIC in the series on Pseudomonas aeruginosa worked out at 512 µg/mL (≈ 941 µM); in the series on Escherichia coli [4] it was 0.5 µg/mL (≈ 0.919 µM); in the series with Staphylococcus aureus [5] it was 256 µg/mL (≈ 471 µM); against Bacillus spizizenii, 512 µg/mL (≈ 941 µM).
Take `CCCCCCCCCCCCOc1c(OC)cc(/C=N/n2cnnc2)c2c1CN1CCc3cc4c(cc3C1C2)OCO4` (centres undefined): the MIC came out at 256 µg/mL (≈ 436 µM) against Proteus vulgaris; 256 µg/mL (≈ 436 µM) with Salmonella typhi; 512 µg/mL (≈ 871 µM) against Micrococcus luteus; 256 µg/mL (≈ 436 µM) with Escherichia coli [2]; 512 µg/mL (≈ 871 µM) against Shigella dysenteriae; 256 µg/mL (≈ 436 µM) against Staphylococcus aureus [3]. Further, the MIC with Pseudomonas aeruginosa came to 512 µg/mL (≈ 871 µM); in the series with Escherichia coli [4], 512 µg/mL (≈ 871 µM); against Staphylococcus aureus [5], 512 µg/mL (≈ 871 µM); against Bacillus spizizenii, 256 µg/mL (≈ 436 µM). The solubility at 3 h in series [1] was determined as 97 µg/mL (≈ 165 µM).
For `COc1cc(/C=N/n2cnnc2)c2c(c1OCc1ccccc1Cl)CN1CCc3cc4c(cc3C1C2)OCO4` (centres undefined), the MIC against Proteus vulgaris was determined as 512 µg/mL (≈ 941 µM); in the series on Salmonella typhi it was 1 µg/mL (≈ 1.84 µM); against Micrococcus luteus, 256 µg/mL (≈ 471 µM); with Escherichia coli [2], 64 µg/mL (≈ 118 µM); in the series with Shigella dysenteriae, 16 µg/mL (≈ 29.4 µM); in the series with Staphylococcus aureus [3] it was 16 µg/mL (≈ 29.4 µM). For the same molecule, the MIC in the series on Pseudomonas aeruginosa is 2 µg/mL (≈ 3.68 µM); with Escherichia coli [4], 4 µg/mL (≈ 7.35 µM); against Staphylococcus aureus [5], 16 µg/mL (≈ 29.4 µM); against Bacillus spizizenii it was 32 µg/mL (≈ 58.8 µM).
Regarding `COc1cc(/C=N/n2cnnc2)c2c(c1OCc1ccc(Cl)cc1Cl)CN1CCc3cc4c(cc3C1C2)OCO4` (centres undefined), the MIC came out at 32 µg/mL (≈ 55.3 µM) against Proteus vulgaris; 32 µg/mL (≈ 55.3 µM) against Salmonella typhi; 128 µg/mL (≈ 221 µM) in the series with Micrococcus luteus; 256 µg/mL (≈ 443 µM) in the series with Escherichia coli [2]; 512 µg/mL (≈ 885 µM) in the series with Shigella dysenteriae; 16 µg/mL (≈ 27.7 µM) against Staphylococcus aureus [3]. Besides, the MIC with Pseudomonas aeruginosa came to 32 µg/mL (≈ 55.3 µM); with Escherichia coli [4] it was 16 µg/mL (≈ 27.7 µM); with Staphylococcus aureus [5], 8 µg/mL (≈ 13.8 µM); in the series on Bacillus spizizenii it was 32 µg/mL (≈ 55.3 µM).
As for `COc1cc(/C=N/n2cnnc2)c2c(c1O)CN1CCc3cc4c(cc3C1C2)OCO4` (centres undefined), the MIC against Proteus vulgaris worked out at 64 µg/mL (≈ 153 µM); in the series on Salmonella typhi it was 128 µg/mL (≈ 305 µM); against Micrococcus luteus it was 1 µg/mL (≈ 2.38 µM); against Escherichia coli [2], 128 µg/mL (≈ 305 µM); against Shigella dysenteriae, 256 µg/mL (≈ 610 µM); with Staphylococcus aureus [3] it was 64 µg/mL (≈ 153 µM). In addition, the MIC in the series with Pseudomonas aeruginosa came to 128 µg/mL (≈ 305 µM); in the series with Escherichia coli [4], 128 µg/mL (≈ 305 µM); in the series with Staphylococcus aureus [5] it was 16 µg/mL (≈ 38.1 µM); against Bacillus spizizenii it was 512 µg/mL (≈ 1220 µM). Also, in series [1], the solubility at 3 h turned out to be 392 µg/mL (≈ 935 µM). Also, the result with Candida albicans, in the series on Aspergillus flavus, with Kregervanrija fluxuum and in the series with Cyberlindnera jadinii (ATCC 9950) was inactive.
Turning to `COc1cc(/C=N/n2cnnc2)c2c(c1OCc1ccc(Cl)cc1)CN1CCc3cc4c(cc3C1C2)OCO4` (centres undefined), the MIC in the series on Proteus vulgaris was 8 µg/mL (≈ 14.7 µM); in the series on Salmonella typhi it was 8 µg/mL (≈ 14.7 µM); in the series on Micrococcus luteus, 16 µg/mL (≈ 29.4 µM); against Escherichia coli [2], 32 µg/mL (≈ 58.8 µM); against Shigella dysenteriae, 64 µg/mL (≈ 118 µM); with Staphylococcus aureus [3] it was 8 µg/mL (≈ 14.7 µM). The MIC against Pseudomonas aeruginosa was determined as 4 µg/mL (≈ 7.35 µM); with Escherichia coli [4], 8 µg/mL (≈ 14.7 µM); with Staphylococcus aureus [5], 32 µg/mL (≈ 58.8 µM); against Cyberlindnera jadinii (Williopsis jadinii, ATCC 9950, 24 h), 0.5 µg/mL (≈ 0.919 µM); against Bacillus spizizenii, 16 µg/mL (≈ 29.4 µM). Further, the concentration in solution in series [1] (solubility at 3 h) came to 613 µg/mL (≈ 1130 µM).

For orientation: solubility means how much of the substance goes into solution per volume.
